How the values were obtained:
[1] = system: conscious rats; test: Effect on mean arterial blood pressure (MAP) and heart rate after intra-arterial injection in conscious rats; format: in vivo, rat
Method: (§1) Saline solutions of the peptides are injected intra-arterially into conscious rats, and arterial pressure is monitored via an indwelling femoral cannula directly coupled to a pressure transducer. […] Control animals receive saline vehicle alone.
Saline solutions of the peptides were administered intraarterially in a 100-μL bolus in an amount equal to about 0.4 mg/Kg body weight.

[2] = system: intracellular Ca++; test: Elevation of intracellular Ca++ concentrations; format: cell-based; settings: 100 nM NPY after 100 nM NPY (18-36)
[3] = system: hypertensive actions of NPY; test: NPY-induced increase in MAP in animals pretreated with NPY(18-36); format: in vivo, rat; settings: NPY 1 μg intra-arterially, 3 animals
Method: as §1

Molecule | decrease in MAP at five and ten minutes after administration [1] | elevation of intracellular Ca++ by NPY after addition of NPY(18-36) [2] | increase in MAP obtained by NPY administration ([3]; animals pretreated with NPY(18-36) 300 μg) [mmHg] | increase in MAP obtained by NPY administration ([3]; control animals) [mmHg]
CC[C@H](C)[C@H](NC(=O)[C@H](Cc1ccc(O)cc1)NC(=O)[C@H](Cc1c[nH]cn1)NC(=O)[C@H](CCCNC(=N)N)NC(=O)[C@H](CC(C)C)NC(=O)[C@H](C)NC(=O)[C@H](CO)NC(=O)[C@H](Cc1ccc(O)cc1)NC(=O)[C@H](Cc1ccc(O)cc1)NC(=O)[C@H](CCCNC(=N)N)NC(=O)[C@H](C)NC(=O)[C@@H](N)CC(C)C)C(=O)N[C@@H](CC(N)=O)C(=O)N[C@@H](CC(C)C)C(=O)N[C@H](C(=O)N[C@H](C(=O)N[C@@H](CCCNC(=N)N)C(=O)N[C@@H](CCC(N)=O)C(=O)N[C@@H](CCCNC(=N)N)C(=O)N[C@@H](Cc1ccc(O)cc1)C(N)=O)[C@@H](C)O)[C@@H](C)CC [pNPY(17-36)] | significantly decrease MAP |  |  | 
Neuropeptide Y [NPY] |  | to the same extent as under control conditions | 28±5 | 32±5
